# Data reported in patent US12404241B2 (Celgene Corporation, priority 2018, dated 2025).
# Where a name gives a salt, the structure may show the parent alone.
# Biological target: T1, AR (Homo sapiens, UniProt P10275)
# T1 construct: endogenous in cells; host or cells: VCaP cells
# T1 sequence (P10275 1-920): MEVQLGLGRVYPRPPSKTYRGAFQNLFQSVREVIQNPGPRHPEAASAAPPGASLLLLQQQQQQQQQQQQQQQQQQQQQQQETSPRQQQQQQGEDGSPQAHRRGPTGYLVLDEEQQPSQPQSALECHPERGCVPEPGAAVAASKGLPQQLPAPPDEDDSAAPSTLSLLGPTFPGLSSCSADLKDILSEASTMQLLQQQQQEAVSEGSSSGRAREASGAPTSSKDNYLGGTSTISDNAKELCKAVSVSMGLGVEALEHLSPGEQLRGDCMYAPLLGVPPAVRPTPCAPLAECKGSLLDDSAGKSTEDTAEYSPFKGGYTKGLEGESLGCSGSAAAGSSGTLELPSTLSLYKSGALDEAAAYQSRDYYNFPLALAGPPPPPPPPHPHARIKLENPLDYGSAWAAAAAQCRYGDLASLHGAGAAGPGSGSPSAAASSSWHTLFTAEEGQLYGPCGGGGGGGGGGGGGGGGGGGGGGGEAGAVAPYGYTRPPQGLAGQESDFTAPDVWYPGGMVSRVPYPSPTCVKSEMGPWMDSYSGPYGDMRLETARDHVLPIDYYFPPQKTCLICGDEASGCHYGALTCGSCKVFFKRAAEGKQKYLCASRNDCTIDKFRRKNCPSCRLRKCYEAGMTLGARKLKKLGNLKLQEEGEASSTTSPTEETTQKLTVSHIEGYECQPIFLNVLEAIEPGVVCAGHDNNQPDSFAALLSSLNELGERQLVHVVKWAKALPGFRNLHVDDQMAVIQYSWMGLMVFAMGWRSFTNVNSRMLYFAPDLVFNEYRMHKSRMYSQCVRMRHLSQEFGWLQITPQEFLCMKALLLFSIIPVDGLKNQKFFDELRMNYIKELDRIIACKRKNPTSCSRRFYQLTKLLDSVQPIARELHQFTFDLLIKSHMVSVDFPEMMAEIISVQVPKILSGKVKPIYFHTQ
# Test: VCAP AR Degradation Assay
# Assay type: cell-based
# Conditions: for Y (AR degradation efficiency, % of DMSO control): class symbols *; for DC50: class symbols A-C, read-out: DC50
# How it was run: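 24 h, 37 °C, VCaP (DMEM/8% FBS), 10-pt 1:3 dilutions from 5 μM final top, 0.1% DMSO ctrl. Lysis on ice/4 °C 1 h; total AR by sandwich ELISA, normalized to DMSO. 4PL fit → DC50, EC50, Y (min AR level).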
Compound,"Y (AR degradation efficiency, % of DMSO control)",DC50
"CC(C)c1cc(N2C(=S)N(c3ccc(C#N)c(C(F)(F)F)c3)C(=O)C2(C)C)ccc1OCCN1CCN(CC(=O)Nc2cccc(NC3CCC(=O)NC3=O)c2)[C@H](C)C1 (stereo partly drawn) [Example 162, 2-((R)-4-(2-(4-(3-(4-cyano-3-(trifluoromethyl)phenyl)-5,5-dimethyl-4-oxo-2-thioxoimidazolidin-1-yl)-2-isopropylphenoxy)ethyl)-2-methylpiperazin-1-yl)-N-(3-(2,6-dioxopiperidin-3-ylamino)phenyl)acetamide]",** (25%<Y<=35%),100 to 500 nM
"CC(C)c1cc(N2C(=S)N(c3cnc(C#N)c(C(F)(F)F)c3)C(=O)C2(C)C)ccc1OCCN1CCN(CC(=O)Nc2cccc(NC3CCC(=O)NC3=O)c2)CC1 (centres unmarked) [Example 53, 2-(4-(2-(4-(3-(6-cyano-5-(trifluoromethyl)pyridin-3-yl)-5,5-dimethyl-4-oxo-2-thioxoimidazolidin-1-yl)-2-isopropylphenoxy)ethyl)piperazin-1-yl)-N-(3-(2,6-dioxopiperidin-3-ylamino)phenyl)acetamide]",* (0<Y<=25%),< 100 nM
"C[C@@H]1CN(CCOc2ccc(N3C(=S)N(c4ccc(C#N)c(C(F)(F)F)c4)C(=O)C34CCCC4)cc2C2CC2)C[C@H](C)N1CC(=O)Nc1cccc(NC2CCC(=O)NC2=O)c1 (stereo partly drawn) [Example 266, 2-((2S,6R)-4-(2-(4-(3-(4-cyano-3-(trifluoromethyl)phenyl)-4-oxo-2-thioxo-1,3-diazaspiro[4.4]nonan-1-yl)-2-cyclopropylphenoxy)ethyl)-2,6-dimethylpiperazin-1-yl)-N-(3-(2,6-dioxopiperidin-3-ylamino)phenyl)acetamide]",* (0<Y<=25%),< 100 nM
"CCc1cc(N2C(=S)N(c3cnc(C#N)c(C(F)(F)F)c3)C(=O)C2(C)C)ccc1OCCN1C[C@H]2C[C@@H]1CN2CC(=O)Nc1cc(Cl)cc(NC2CCC(=O)NC2=O)c1 (stereo partly drawn) [Example 120, N-(3-chloro-5-(2,6-dioxopiperidin-3-ylamino)phenyl)-2-((1R,4R)-5-(2-(4-(3-(6-cyano-5-(trifluoromethyl)pyridin-3-yl)-5,5-dimethyl-4-oxo-2-thioxoimidazolidin-1-yl)-2-ethylphenoxy)ethyl)-2,5-diazabicyclo[2.2.1]heptan-2-yl)acetamide]",** (25%<Y<=35%),100 to 500 nM
"CC1(C)C(=O)N(c2ccc(C#N)c(C(F)(F)F)c2)C(=S)N1c1ccc(OCCN2CCN(CC(=O)Nc3cccc(NC4CCC(=O)NC4=O)c3)CC2)c(C2CCC2)c1 (centres unmarked) [Example 31, trifluoroacetate]",* (0<Y<=25%),< 100 nM
"CCc1cc(N2C(=S)N(c3cnc(C#N)c(C(F)(F)F)c3)C(=O)C2(C)C)ccc1OCCN1CCN(CC(=O)Nc2cc(Cl)cc(NC3CCC(=O)NC3=O)c2)[C@H](C)C1 (stereo partly drawn) [Example 144, N-(3-chloro-5-(2,6-dioxopiperidin-3-ylamino)phenyl)-2-((R)-4-(2-(4-(3-(6-cyano-5-(trifluoromethyl)pyridin-3-yl)-5,5-dimethyl-4-oxo-2-thioxoimidazolidin-1-yl)-2-ethylphenoxy)ethyl)-2-methylpiperazin-1-yl)acetamide]",* (0<Y<=25%),< 100 nM
"CC(F)(F)c1cc(N2C(=S)N(c3cnc(C#N)c(C(F)(F)F)c3)C(=O)C2(C)C)ccc1OCCN1CCN(CC(=O)Nc2cc(F)cc(NC3CCC(=O)NC3=O)c2)CC1 (centres unmarked) [Example 80, 2-(4-(2-(4-(3-(6-cyano-5-(trifluoromethyl)pyridin-3-yl)-5,5-dimethyl-4-oxo-2-thioxoimidazolidin-1-yl)-2-(1,1-difluoroethyl)phenoxy)ethyl)piperazin-1-yl)-N-(3-(2,6-dioxopiperidin-3-ylamino)-5-fluorophenyl)acetamide]",* (0<Y<=25%),< 100 nM
"CC1(C)C(=O)N(c2cnc(C#N)c(C(F)(F)F)c2)C(=S)N1c1ccc(OCCN2CCN(CC(=O)Nc3cc(Cl)cc(NC4CCC(=O)NC4=O)c3)CC2)c(CO)c1 (centres unmarked) [Example 91, N-(3-chloro-5-(2,6-dioxopiperidin-3-ylamino)phenyl)-2-(4-(2-(4-(3-(6-cyano-5-(trifluoromethyl)pyridin-3-yl)-5,5-dimethyl-4-oxo-2-thioxoimidazolidin-1-yl)-2-(hydroxymethyl)phenoxy)ethyl)piperazin-1-yl)acetamide]",*** (35%<Y<50%),< 100 nM
"C[C@@H]1CN(CCOc2ccc(N3C(=S)N(c4ccc(C#N)c(C(F)(F)F)c4)C(=O)C3(C)C)cc2CCF)CCN1CC(=O)Nc1cccc(NC2CCC(=O)NC2=O)c1 (stereo partly drawn) [Example 164, 2-((R)-4-(2-(4-(3-(4-cyano-3-(trifluoromethyl)phenyl)-5,5-dimethyl-4-oxo-2-thioxoimidazolidin-1-yl)-2-(2-fluoroethyl)phenoxy)ethyl)-2-methylpiperazin-1-yl)-N-(3-(2,6-dioxopiperidin-3-ylamino)phenyl)acetamide]",* (0<Y<=25%),< 100 nM
"CCc1cc(N2C(=S)N(c3ccc(C#N)c(C(F)(F)F)c3)C(=O)C2(C)C)ccc1OCCN1C[C@@H](C)N(CC(=O)Nc2cccc(NC3CCC(=O)NC3=O)c2)C[C@H]1C (stereo partly drawn) [Example 127, 2-((2R,5R)-4-(2-(4-(3-(4-cyano-3-(trifluoromethyl)phenyl)-5,5-dimethyl-4-oxo-2-thioxoimidazolidin-1-yl)-2-ethylphenoxy)ethyl)-2,5-dimethylpiperazin-1-yl)-N-(3-(2,6-dioxopiperidin-3-ylamino)phenyl)acetamide]",* (0<Y<=25%),< 100 nM
"CCc1cc(N2C(=S)N(c3ccc(C#N)c(C(F)(F)F)c3)C(=O)C2(C)C)cnc1OCCN1C[C@@H](C)N(CC(=O)Nc2cc(Cl)cc(NC3CCC(=O)NC3=O)c2)C[C@H]1C (stereo partly drawn) [Example 189, N-(3-chloro-5-(2,6-dioxopiperidin-3-ylamino)phenyl)-2-((2R,5R)-4-(2-(5-(3-(4-cyano-3-(trifluoromethyl)phenyl)-5,5-dimethyl-4-oxo-2-thioxoimidazolidin-1-yl)-3-ethylpyridin-2-yloxy)ethyl)-2,5-dimethylpiperazin-1-yl)acetamide]",* (0<Y<=25%),< 100 nM
"CC(C)c1cc(N2C(=S)N(c3ccc(C#N)c(C(F)(F)F)c3)C(=O)C23CCC3)cnc1OCCN1C[C@@H](C)N(CC(=O)Nc2cccc(NC3CCC(=O)NC3=O)c2)[C@@H](C)C1 (stereo partly drawn) [Example 227, 2-((2S,6R)-4-(2-(5-(7-(4-cyano-3-(trifluoromethyl)phenyl)-8-oxo-6-thioxo-5,7-diazaspiro[3.4]octan-5-yl)-3-isopropylpyridin-2-yloxy)ethyl)-2,6-dimethylpiperazin-1-yl)-N-(3-(2,6-dioxopiperidin-3-ylamino)phenyl)acetamide]",* (0<Y<=25%),< 100 nM
"C[C@@H]1CN(CCOc2ccc(N3C(=S)N(c4ccc(C#N)c(C(F)(F)F)c4)C(=O)C3(C)C)cc2CC(F)F)CCN1CC(=O)Nc1cccc(NC2CCC(=O)NC2=O)c1 (stereo partly drawn) [Example 153, 2-((R)-4-(2-(4-(3-(4-cyano-3-(trifluoromethyl)phenyl)-5,5-dimethyl-4-oxo-2-thioxoimidazolidin-1-yl)-2-(2,2-difluoroethyl)phenoxy)ethyl)-2-methylpiperazin-1-yl)-N-(3-(2,6-dioxopiperidin-3-ylamino)phenyl)acetamide]",* (0<Y<=25%),< 100 nM
"CCc1cc(N2C(=S)N(c3cnc(C#N)c(C(F)(F)F)c3)C(=O)C2(C)C)ccc1OCCN1CCN(CC(=O)Nc2cc(NC3CCC(=O)NC3=O)ccc2Cl)CC1 (single isomer, unassigned) [Example 47]",* (0<Y<=25%),< 100 nM
"CC1(C)C(=O)N(c2cnc(C#N)c(C(F)(F)F)c2)C(=S)N1c1ccc(OCCN2CCN(CC(=O)Nc3cccc(NC4CCC(=O)NC4=O)c3)CC2)c(Cl)c1 (centres unmarked) [Example 5, hydrochloride]",* (0<Y<=25%),< 100 nM
"CCc1cc(N2C(=S)N(c3cnc(C#N)c(C(F)(F)F)c3)C(=O)C2(C)C)ccc1OCCN1CCN([C@H](C)C(=O)Nc2cc(F)cc(NC3CCC(=O)NC3=O)c2)CC1 (stereo partly drawn) [Example 117, (2R)-2-(4-(2-(4-(3-(6-cyano-5-(trifluoromethyl)pyridin-3-yl)-5,5-dimethyl-4-oxo-2-thioxoimidazolidin-1-yl)-2-ethylphenoxy)ethyl)piperazin-1-yl)-N-(3-(2,6-dioxopiperidin-3-ylamino)-5-fluorophenyl)propanamide]",* (0<Y<=25%),< 100 nM
